According to patent US10376550B2, “Nutraceutical composition and methods of use” (Dacy Tech Party Ltd., priority 2007, dated 2019):

How the values were obtained:
[1] = tested on: prostaglandin PGF2α levels; assay: PGF2α levels in IL-1β stimulated NHAC cells; format: cell-based; details: IL-1β 10 ng/ml, 24 hours, fractions 64-32 μg/ml
Method: (§1) To study the anti-inflammatory activities, assays Fr 1, Fr i, Fr V and Fr Vi were selected and tested at a concentration of ≤64 μg/ml. The assays carried out to measure the 1) Nitric Oxide (NO) levels, 2) prostaglandin PGE2 levels, 3) prostaglandin PGF2α levels. NHAC cells at passage 3, were stimulated first with proinflammatory cytokine IL-1β at a predetermined concentration 10 ng/ml overnight, NHAC Cells were then treated with fractions in the presence of IL-1β 10 ng/ml for 24 hours and cell culture supernatant was collected to measure NO, PGE2 and PGF2α levels. Griess Reagent Kit for Nitrite Determination (Molecular Probes, Invitrogen) was used as per kit instructions. For estimation of PGs, High Sensitivity PGE2 & PGF2α EIA kits (Assay Designs Inc.) were used.

[2] = tested on: prostaglandin PGE2 levels; assay: PGE2 levels in IL-1β stimulated NHAC cells; format: cell-based; details: IL-1β 10 ng/ml, 24 hours, fractions ≤64 μg/ml
Method: as §1

Question: `COc1ccc2c(c1)c(CC(=O)O)c(C)n2C(=O)c1ccc(Cl)cc1` [Indomethacin] was tested. Which “IL-1β induced PGF2α levels” value [1] did it give?
Answer: significantly reduced

Question: What about the “IL-1β induced PGE2 levels” value [2] of the same molecule?
Answer: significantly reduced
